Assays:
GFP = GFP driven by AtUbi10/AtuOrf23 in both constructs; Typhoon scanner, 6th day after infiltration
Method: N. benthamiana plants were grown in the greenhouse under 16 hour photoperiod, 27° C./24° C. Twenty four day old plants were used for infiltration. The 3-4 top-most leaves were infiltrated using two Agrobacterium strains. The first strain was used in all infiltrations and carried the pDAB112236 construct expressing P19 silencing suppressor (Silhavy et al, (2002), EMBO J, 21, 3070-3080). The second Agrobacterium strain was either the experimental strain carrying pDAB116647 (SEQ ID NO:12) or a strain carrying the control pDAB110167 binary vector (FIG. 6). The pDAB110167 was identical to the pDAB116647 (SEQ ID NO:12) except that it had the reporter tagRFP/AAD12 fusion gene driven by the ScBV (Sugar Cane Bacilliform Virus) promoter fused to the Maize Streak Virus (MSV) 5′ leader engineered to contain maize Alcohol dehydrogenaseI (AdhI) gene intron 6 was paired with the StPinII terminator fragment (abbreviated ScBV/StPinII) to drive expression of the tagRFP/AAD12 reporter gene.
For N. benthamiana leaf infiltrations Agrobacterium strains containing either the pDAB116647 or pDAB110167 were mixed in equal proportions with an Agrobacterium strain that carried a plasmid that contained a gene encoding the P19 silencing suppressor Voinnet et al, (1999), Proc Natl Acad Sci USA, 96, 14147-14152. The mixing ratios were based on Optical Density (OD) readings. The density of all Agrobacterium cultures was adjusted to OD 2.0. After infiltration plants were maintained in a Conviron until leaves were collected on the 6th day after infiltration. Fluorescence data were collected using a Typhoon scanner from 30 leaves per construct with 3-5 one inch disks per leaf.
All samples from N. benthamiana were scanned on 3 channels: chlorophyll (488 nm blue laser, 670 nm BP30, 580 nm split), GFP (488 nm blue laser, 520 nm BP40, 580 nm split), and tagRFP (532 nm green laser, 580 nm BP30). The PhotoMultiplier Tube (PMT) setting used for N. benthamiana was 340/340/400. Background adjustments were made by subtracting calculated means for non-treated and empty vector controls from test treatment values. The values from each leaf were averaged to generate a mean fluorescence value.

[1] = system: tagRFP/AAD12 reporter gene; assay: N. benthamiana leaf infiltration transient assay, RFP fluorescence; format: in vivo; details: for RFP Mean / RFP Median: Typhoon scanner fluorescence, leaves collected 6th day after infiltration, co-infiltrated with P19 silencing suppressor strain
Source text: Twenty four day old plants were used for infiltration.

[2] = system: transgenic soybean plants; assay: 2,4-D herbicide tolerance of T1 transgenic soybean plants; format: in vivo, Glycine max; details: 2240 g ae/ha 2,4-D foliar
Source text: To assess T1 Soybean Herbicide Tolerance, T1 seed generated from self-pollination of single copy T0 events were planted in an artificial soil mix (MetroMix 360™) contained in 4-inch square pots. The T1 generation is a segregating population of the homozygous, hemizygous and non-transgenic plants. To eliminate the null individuals, the T1 population received a foliar application of 411 g active ingredient (ai)/ha glufosinate ammonium (Liberty® 280) when plants reached the first trifoliate leaf stage. Four days after application (DAA) surviving plants were sampled for molecular analysis to determine transgene zygosity and to confirm transgene copy number.
For each event, 8 homozygous and 8 hemizygous plants were sampled for protein analyses, and the following day (third trifoliate stage), half of the plants received a foliar application of 2240 g acid equivalent (ae)/ha 2,4-D dimethylamine (DMA) salt (Weedar® 64). The remaining plants received no spray application. Some plants were also sprayed with deionized water as a sprayer application control. In addition to the transformed events, the soybean variety, ‘Maverick’, was included in each treatment as a non-transformed control.
Foliar applications were made with a Mandel track sprayer set to deliver a spray solution at 187 L/ha to a spray area of 0.503 m^2 using an 8002E nozzle and a spray height of 18 inches above the plant canopy. Plant response to the 2,4-D application was evaluated at 5 hours after application (HAA) and 1, 7, and 14 DAA. Data were collected by assessment of visual injury and/or growth reduction as compared to untreated controls on a scale of 0% to 100% with 0% corresponding to no injury or growth reduction and 100% corresponding to complete plant death. Plants were maintained at 28° C./25° C. (day/night) under a 14 h photoperiod and sub-irrigated with water or fertilizer as needed.

Substance	GFP Mean (GFP)	GFP Median (GFP)	RFP Mean [1]	RFP Median [1]	% Injury Mean 1 DAA ([2]; Hemi)	% Injury Mean 5 HAA ([2]; Hemi)	% Injury Mean 7 DAA ([2]; Hemi)	% Injury Mean 14 DAA ([2]; Hemi)	% Injury Mean 1 DAA ([2]; Homo)	% Injury Mean 5 HAA ([2]; Homo)	% Injury Mean 7 DAA ([2]; Homo)	% Injury Mean 14 DAA ([2]; Homo)	RFP fluorescence relative to the control (pDAB110167) construct ([1]; mean and median, p-Value <0.0001)
pDAB110167: control binary vector; tagRFP/AAD12 driven by ScBV promoter, MSV 5' leader with AdhI intron 6, StPinII terminator [reference compound]	166966846	148985095	24746396	21007653									
pDAB116632: plasmid with GmRubAct promoter and 5' UTR fused to AAD12 gene, terminated with GmRubAct terminator					18.13%	15.0%	4.38%	3.75%	12.0%	8.67%	2.33%	1.67%	
pDAB116647: binary vector with tagRFP/AAD12 reporter gene driven by GmRubAct promoter, 5' UTR and terminator	161956091	156309149	40982229	39409305									significantly higher
